Experimental data from US20240425519A1, “NOVEL SPIROCYCLIC COMPOUNDS AS KLHDC2 LIGANDS” (University of Washington, priority 2021, published 2024).

The compounds below were run against KLHDC2 (Homo sapiens (Human), UniProt Q9Y2U9) (assay: AlphaScreen competition assay for ligand binding to KLHDC2 (GST-KLHDC2 vs biotinylated 12 aa SelK degron peptide)). Settings: formula (II) compounds; 0.12 nM GST-KLHDC2, 1.7 nM biotinylated 12 aa SelK peptide; triplicate; read-out: KLHDC2 binding activities IC50.
Sequence of KLHDC2 (Q9Y2U9 whole entry): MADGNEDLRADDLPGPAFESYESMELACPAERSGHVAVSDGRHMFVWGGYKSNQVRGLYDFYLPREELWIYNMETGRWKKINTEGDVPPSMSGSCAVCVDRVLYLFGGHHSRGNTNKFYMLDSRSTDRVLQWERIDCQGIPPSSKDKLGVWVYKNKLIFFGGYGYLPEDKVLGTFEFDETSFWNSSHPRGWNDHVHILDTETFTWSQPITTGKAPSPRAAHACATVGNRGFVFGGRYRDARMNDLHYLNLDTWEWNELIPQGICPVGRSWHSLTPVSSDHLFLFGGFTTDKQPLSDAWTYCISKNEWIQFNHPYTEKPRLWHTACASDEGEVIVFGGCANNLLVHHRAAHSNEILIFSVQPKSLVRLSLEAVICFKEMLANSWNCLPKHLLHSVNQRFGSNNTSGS
Source text: The following is a description of an assay for evaluating ligand binding to KLHDC2.
Amplified Luminescence Proximity Homogenous Assay (AlphaScreen) was used to monitor protein-protein interaction of two tagged components that are immobilized on beads. One component was GST-KLHDC2 (E3) and the other one was biotinylated-SelK peptide with a length of 12 amino acids (Substrate peptide). When the two components bind, they bring the Alpha beads in close proximity to each other that results in a luminescent signal.
AlphaScreen assays for determining and measuring protein-protein interactions were performed using EnSpire reader (PerkinElmer). GST-tagged KLHDC2 was attached to anti-GST AlphaScreen acceptor beads. Synthetic biotinylated 12 aa SelK degron peptide (Bio-Synthesis, Inc.) was immobilized to streptavidin-coated AlphaScreen donor beads. The donor and acceptor beads were brought into proximity by the interactions between the SelK peptide and KLHDC2. Excitation of the donor beads by a laser beam of 680 nm promotes the formation of singlet oxygen. When an acceptor bead is in close proximity, the singlet oxygen reacts with thioxene derivatives in the acceptor beads and causes the emission of 520-620 nm photons, which are detected as the binding signal. If the beads are not in close proximity to each other, the oxygen will return to its ground state and the acceptor beads will not emit light. Competition assays were performed in the presence of representative binding compounds, which were titrated at various concentrations.
The experiments were conducted with 0.12 nM of GST-KLHDC2 and 1.7 nM biotinylated 12 aa SelK peptide in the presence of 5 μg/ml donor and acceptor beads in a buffer of 25 mM HEPES, pH 7.5, 100 mM NaCl, 1 mM TCEP, 0.1% Tween-20, and 0.05 mg/ml Bovine Serum Albumin. The concentrations of the compounds used in competition assays ranged from 0.1 nM to 25 mM. The experiments were done in triplicate. IC50 values were determined using non-linear curve fitting of the dose response curves generated with Prism 4 (GraphPad).
Work on `CC(=O)N1CCC[C@@H]1C(=O)N1CCN(C)C2(CCC(=O)N(CC(=O)O)CC2)C1` (stereo partly drawn) [AC1072, 2-(4-(acetyl-D-prolyl)-1-methyl-10-oxo-1,4,9-triazaspiro[5.6]dodecan-9-yl)acetic acid] yielded an IC50 of 12.5 µM.
`CN1CCN(C(=O)NCc2ccccc2)CC12CCC(=O)N(CC(=O)O)CC2` (stereo not shown) [AC1051, 2-(4-(benzylcarbamoyl)-1-methyl-10-oxo-1,4,9-triazaspiro[5.6]dodecan-9-yl)acetic acid] gave an IC50 of 45.9 µM.
`CN1CCN(C(=O)C2CN(Cc3ccccn3)C2)CC12CCC(=O)N(CC(=O)O)CC2` (stereo not shown) [AC1069, 2-(1-methyl-10-oxo-4-(1-(pyridin-2-ylmethyl)azeti-dine-3-carbonyl)-1,4,9-triazaspiro[5.6]dodecan-9-yl)acetic acid] gave an IC50 of 4.6 µM.
`CN1CCN(C(=O)c2cnn(-c3ccccc3)c2)CC12CCC(=O)N(CC(=O)O)CC2` (stereo not shown) [AC1064, 2-(1-methyl-10-oxo-4-(1-phenyl-1H-pyrazole-4-carbonyl)-1,4,9-triaza-spiro[5.6]dodecan-9-yl)-acetic acid] was tested, and the IC50 was 148 µM.
`COC(C)(C(=O)N1CCN(C)C2(CCC(=O)N(CC(=O)O)CC2)C1)c1ccccc1` (stereo not shown) [AC1063, 2-(4-(2-methoxy-2-phen-ylpropanoyl)-1-methyl-10-oxo-1,4,9-triazaspiro-[5.6]dodecan-9-yl)acetic acid] was tested, and the IC50 was 131 µM.
`CC(Cc1ccccc1)C(=O)N1CCN(C)C2(CCC(=O)N(CC(=O)O)CC2)C1` (stereo not shown) [AC1033, 2-(1-methyl-4-(2-methyl-3-phenylpropanoyl)-10-oxo-1,4,9-triazaspiro[5.6]-dodecan-9-yl)acetic acid] gave an IC50 of 56.4 µM.
For `CN1CCN(C(=O)C2(O)CCCC2)CC12CCC(=O)N(CC(=O)O)CC2` (stereo not shown) [AC1048, 2-(4-(1-hydroxycyclopen-tane-1-carbonyl)-1-meth-yl-10-oxo-1,4,9-triaza-spiro[5.6]dodecan-9-yl)-acetic acid], the IC50 was 116 µM.
In the case of `CN1CCN(C(=O)[C@H]2CCCN2C(=O)c2ccccc2)CC12CCC(=O)N(CC(=O)O)CC2` (stereo partly drawn) [AC1071, 2-(4-(benzoyl-D-prolyl)-1-methyl-10-oxo-1,4,9-triazaspiro[5.6]dodecan-9-yl)acetic acid], the IC50 is reported as 45.4 µM.
For `CC(=O)N1CCC(C(=O)N2CCN(C)C3(CCC(=O)N(CC(=O)O)CC3)C2)CC1` (stereo not shown) [AC1068, 2-(4-(1-acetylpiperidine-4-carbonyl)-1-methyl-10-oxo-1,4,9-triazaspiro-[5.6]dodecan-9-yl)acetic acid], the IC50 was 191 µM.
For `CN1CCN(C(=O)Nc2ccccc2)CC12CCC(=O)N(CC(=O)O)CC2` (stereo not shown) [AC1050, 2-(1-methyl-10-oxo-4-(phenylcarbamoyl)-1,4,9-triazaspiro[5.6]dodecan-9-yl)acetic acid], the IC50 was 33.6 µM.
Work on `CN1CCN(C(=O)C2CC2c2ccccc2)CC12CCC(=O)N(CC(=O)O)CC2` (stereo not shown) [AC1032, 2-(1-methyl-10-oxo-4-(2-phenylcyclopropane-1-carbonyl)-1,4,9-triaza-spiro[5.6]dodecan-9-yl)-acetic acid] yielded an IC50 of 32 µM.
In the case of `CN1CCN(C(=O)C2CC(F)(F)C2)CC12CCC(=O)N(CC(=O)O)CC2` (stereo not shown) [AC1034, 2-(4-(3,3-difluorocyclo-butane-1-carbonyl)-1-methyl-10-oxo-1,4,9-triazaspiro[5.6]dodecan-9-yl)acetic acid], the IC50 is reported as 295 µM.
`CN1CCN(C(=O)[C@@H]2CCN2C(=O)OC(C)(C)C)CC12CCC(=O)N(CC(=O)O)CC2` (stereo partly drawn) [AC1065, 2-(4-((S)-1-(tert-butoxy-carbonyl)azetidine-2-carbonyl)-1-methyl-10-oxo-1,4,9-triazaspiro[5.6]-dodecan-9-yl)acetic acid] was tested, and the IC50 was 496 µM.
Compound `CN1CCN(C(=O)C2CC(=O)N(Cc3ccccc3)C2)CC12CCC(=O)N(CC(=O)O)CC2` (stereo not shown) [AC1066, 2-(4-(1-benzyl-5-oxo-pyrrolidine-3-carbonyl)-1-methyl-10-oxo-1,4,9-triazaspiro[5.6]dodecan-9-yl)acetic acid] has an IC50 of 65.9 µM.
In the case of `CN1CCN(C(=O)C2(c3ccc(F)cc3)CC2)CC12CCC(=O)N(CC(=O)O)CC2` (stereo not shown) [AC1045, 2-(4-(1-(4-fluorophenyl)-cyclopropane-1-carbon-yl)-1-methyl-10-oxo-1,4,9-triazaspiro[5.6]-dodecan-9-yl)acetic acid], the IC50 is reported as 348 µM.
`CN1CCN(C(=O)C(C)(C)Oc2ccccc2)CC12CCC(=O)N(CC(=O)O)CC2` (stereo not shown) [AC1046, 2-(1-methyl-4-(2-methyl-2-phenoxypropanoyl)-10-oxo-1,4,9-triazaspiro[5.6]-dodecan-9-yl)acetic acid] was tested, and the IC50 was 202 µM.
For `CN1CCN(C(=O)NC2CCC2)CC12CCC(=O)N(CC(=O)O)CC2` (stereo not shown) [AC1049, 2-(4-(cyclobutylcarbam-oyl)-1-methyl-10-oxo-1,4,9-triazaspiro[5.6]-dodecan-9-yl)acetic acid], the IC50 was 91.7 µM.
For `CN1CCN(C(=O)C2CC2)CC12CCC(=O)N(CC(=O)O)CC2` (stereo not shown) [AC1052, 2-(4-(cyclopropanecar-bonyl)-1-methyl-10-oxo-1,4,9-triazaspiro[5.6]-dodecan-9-yl)acetic acid], the IC50 was 100 µM.
For `CC(C(=O)N1CCN(C)C2(CCC(=O)N(CC(=O)O)CC2)C1)c1ccc(O)cc1` (stereo not shown) [AC1062, 2-(4-(2-(4-hydroxyphen-yl)propanoyl)-1-methyl-10-oxo-1,4,9-triazaspiro-[5.6]dodecan-9-yl)acetic acid], the IC50 was 19.8 µM.
`CN1CCN(C(=O)[C@H]2C[C@@H](NC(=O)OC(C)(C)C)C2)CC12CCC(=O)N(CC(=O)O)CC2` (stereo partly drawn) [AC1047, 2-(4-((1,3-trans)-3-((tert-butoxycarbonyl)amino)-cyclobutane-1-carbonyl)-1-methyl-10-oxo-1,4,9-triazaspiro[5.6]dodecan-9-yl)acetic acid] showed an IC50 of 493 µM.

Same assay, conditions: formula (III) compounds; 0.12 nM GST-KLHDC2, 1.7 nM biotinylated 12 aa SelK peptide; triplicate; read-out: KLHDC2 binding activities IC50
`CC(=O)N1CCc2nc(N3CCN(C)C4(CCC(=O)N(CC(=O)O)CC4)C3)ncc2C1` (stereo not shown) [AC1030, 2-(4-(6-acetyl-5,6,7,8-tetra-hydropyrido[4,3-d]pyrimidin-2-yl)-1-methyl-10-oxo-1,4,9-triazaspiro[5.6]dodecan-9-yl)-acetic acid] gave an IC50 of 445 µM.
`Cc1nc(N)nc(N2CCN(C)C3(CCC(=O)N(CC(=O)O)CC3)C2)c1Cl` (stereo not shown) [AC1031, 2-(4-(2-amino-5-chloro-6-methylpyrimidin-4-yl)-1-methyl-10-oxo-1,4,9-triaza-spiro[5.6]dodecan-9-yl)acetic acid] gave an IC50 of 389 µM.
`CN1CCN(c2nccc(C(=O)O)n2)CC12CCC(=O)N(CC(=O)O)CC2` (stereo not shown) [AC1035, 2-(9-(carboxymethyl)-1-meth-yl-10-oxo-1,4,9-triazaspiro-[5.6]dodecan-4-yl)pyrimidine-4-carboxylic acid] was tested, and the IC50 was 123 µM.

Same assay, conditions: formula (IV) compounds; 0.12 nM GST-KLHDC2, 1.7 nM biotinylated 12 aa SelK peptide; triplicate; read-out: KLHDC2 binding activities IC50
In the case of `CC(C(=O)N1CCCC2(CCN(CC(=O)O)C(=O)CO2)C1)c1ccccc1` (stereo not shown) [AC890, 2-(9-oxo-2-(2-phenylpropano-yl)-7-oxa-2,10-diazaspiro[5.6]-dodecan-10-yl)acetic acid], the IC50 is reported as 50 µM.
`Cc1nccc(N2CCCC3(CCN(CC(=O)O)C(=O)CO3)C2)n1` (stereo not shown) [AC947, 2-(2-(2-methylpyrimidin-4-yl)-9-oxo-7-oxa-2,10-diazaspiro-[5.6]dodecan-10-yl)acetic acid] gave an IC50 of 1390 µM.
With `O=C(O)CN1CCC2(CCCN(c3ccnc(N4CCC(O)C4)n3)C2)OCC1=O` (stereo not shown) [AC935, 2-(2-(2-(3-hydroxypyrrolidin-1-yl)pyrimidin-4-yl)-9-oxo-7-oxa-2,10-diazaspiro[5.6]-dodecan-10-yl)acetic acid] the IC50 was 47.5 µM.
In the case of `C[C@H](C(=O)N1CCC[C@]2(CCN(CC(=O)O)C(=O)CO2)C1)c1ccccc1` [AC0978, 2-((S)-9-oxo-2-((S)-2-phenyl-propanoyl)-7-oxa-2,10-diaza-spiro[5.6]dodecan-10-yl)acetic acid], the IC50 is reported as 22.1 µM.
`C[C@H](C(=O)N1CCC[C@@]2(CCN(CC(=O)O)C(=O)CO2)C1)c1ccccc1` [AC0979, 2-((R)-9-oxo-2-((S)-2-phenyl-propanoyl)-7-oxa-2,10-diaza-spiro[5.6]dodecan-10-yl)acetic acid] was tested, and the IC50 was 63.7 µM.
`C[C@@H](C(=O)N1CCCC2(CCN(CC(=O)O)C(=O)CO2)C1)c1ccccc1` (stereo partly drawn) [AC1028, 2-(9-oxo-2-((R)-2-phenylpro-panoyl)-7-oxa-2,10-diaza-spiro[5.6]dodecan-10-yl)acetic acid] gave an IC50 of 39.6 µM.
With `O=C(O)CN1CCC2(CCCN(C(=O)C3CCCC3)C2)OCC1=O` (stereo not shown) [AC903, 2-(2-(cyclopentanecarbonyl)-9-oxo-7-oxa-2,10-diazaspiro-[5.6]dodecan-10-yl)acetic acid] the IC50 was 40.1 µM.
`O=C(O)CN1CCC2(CCCN(C(=O)C3CCC3)C2)OCC1=O` (stereo not shown) [AC904, 2-(2-(cyclobutanecarbonyl)-9-oxo-7-oxa-2,10-diazaspiro-[5.6]dodecan-10-yl)acetic acid] showed an IC50 of 51 µM.
